Reference: ChEMBL document CHEMBL1152457, “Antimicrobial drug resistance of Salmonella enterica serovar typhi in asia and molecular mechanism of reduced susceptibility to the fluoroquinolones” (2007)
≈ marks a conversion by molar mass, not a printed value.

Key:
Type in all cases: functional, Salmonella enterica subsp. enterica serovar Typhi
[1] = system: Salmonella enterica subsp. enterica; assay: Antimicrobial activity against multidrug-resistant Salmonella enterica Serovar Typhi isolate A102 harboring DNA gyrase A S83Y mutation by disk diffusion method in presence of plasmid mediated quinolone-resistant gene qnrA and qnrS
[2] = system: Salmonella enterica subsp. enterica; assay: Antimicrobial activity against multidrug-resistant Salmonella enterica Serovar Typhi isolate ipt 33 harboring DNA gyrase A S83F mutation by disk diffusion method
[3] = system: Salmonella enterica subsp. enterica; assay: Antimicrobial activity against multidrug-resistant Salmonella enterica Serovar Typhi isolate AG8 harboring DNA gyrase A S83F mutation by disk diffusion method
[4] = system: Salmonella enterica subsp. enterica; assay: Antimicrobial activity against multidrug-resistant Salmonella enterica Serovar Typhi isolate DT15 harboring DNA gyrase A S83F mutation by disk diffusion method
[5] = system: Salmonella enterica subsp. enterica; assay: Antimicrobial activity against multidrug-resistant Salmonella enterica Serovar Typhi isolate BL 21095 harboring DNA gyrase A S83F mutation by disk diffusion method in presence of plasmid mediated quinolone-resistant gene qnrA and qnrS
[6] = system: Salmonella enterica subsp. enterica; assay: Antimicrobial activity against multidrug-resistant Salmonella enterica Serovar Typhi isolate DT18 harboring DNA gyrase A S83F and D87G mutation by disk diffusion method
[7] = system: Salmonella enterica subsp. enterica; assay: Antimicrobial activity against multidrug-resistant Salmonella enterica Serovar Typhi isolate CT29 harboring DNA gyrase A S83F mutation by disk diffusion method in presence of plasmid mediated quinolone-resistant gene qnrA and qnrS
[8] = system: Salmonella enterica subsp. enterica; assay: Antimicrobial activity against Salmonella enterica Serovar Typhi isolate C152 harboring DNA gyrase A S83Y mutation by disk diffusion method in presence of plasmid mediated quinolone-resistant gene qnrA and qnrS
[9] = system: Salmonella enterica subsp. enterica; assay: Antimicrobial activity against multidrug-resistant Salmonella enterica Serovar Typhi isolate DT60 harboring DNA gyrase A S83F mutation by disk diffusion method
[10] = system: Salmonella enterica subsp. enterica; assay: Antimicrobial activity against multidrug-resistant Salmonella enterica Serovar Typhi isolate nar 50 harboring DNA gyrase A S83F mutation by disk diffusion method
[11] = system: Salmonella enterica subsp. enterica; assay: Antimicrobial activity against multidrug-resistant Salmonella enterica Serovar Typhi isolate nar 102 harboring DNA gyrase A S83F mutation by disk diffusion method in presence of plasmid mediated quinolone-resistant gene qnrA and qnrS
[12] = system: Salmonella enterica subsp. enterica; assay: Antimicrobial activity against Salmonella enterica Serovar Typhi isolate D43 harboring DNA gyrase A S83Y mutation by disk diffusion method in presence of plasmid mediated quinolone-resistant gene qnrA and qnrS
[13] = system: Salmonella enterica subsp. enterica; assay: Antimicrobial activity against multidrug-resistant Salmonella enterica Serovar Typhi isolate CT61 harboring DNA gyrase A S83F mutation by disk diffusion method in presence of plasmid mediated quinolone-resistant gene qnrA and qnrS
[14] = system: Salmonella enterica subsp. enterica; assay: Antimicrobial activity against multidrug-resistant Salmonella enterica Serovar Typhi isolate nar 104 harboring DNA gyrase A S83F mutation by disk diffusion method in presence of plasmid mediated quinolone-resistant gene qnrA and qnrS
[15] = system: Salmonella enterica subsp. enterica; assay: Antimicrobial activity against Salmonella enterica Serovar Typhi isolate CT142 harboring DNA gyrase A S83F mutation by disk diffusion method in presence of plasmid mediated quinolone-resistant gene qnrA and qnrS
[16] = system: Salmonella enterica subsp. enterica; assay: Antimicrobial activity against multidrug-resistant Salmonella enterica Serovar Typhi isolate DT42 harboring DNA gyrase A S83F mutation by disk diffusion method
[17] = system: Salmonella enterica subsp. enterica; assay: Antimicrobial activity against multidrug-resistant Salmonella enterica Serovar Typhi isolate nar 107 harboring DNA gyrase A S83F mutation by disk diffusion method in presence of plasmid mediated quinolone-resistant gene qnrA and qnrS
[18] = system: Salmonella enterica subsp. enterica; assay: Antimicrobial activity against multidrug-resistant Salmonella enterica Serovar Typhi isolate nar 28 harboring DNA gyrase A S83F mutation by disk diffusion method
[19] = system: Salmonella enterica subsp. enterica; assay: Antimicrobial activity against multidrug-resistant Salmonella enterica Serovar Typhi isolate AG7 harboring DNA gyrase A S83F mutation by disk diffusion method
[20] = system: Salmonella enterica subsp. enterica; assay: Antimicrobial activity against multidrug-resistant Salmonella enterica Serovar Typhi isolate AG16 harboring DNA gyrase A S83F mutation by disk diffusion method
[21] = system: Salmonella enterica subsp. enterica; assay: Antimicrobial activity against Salmonella enterica Serovar Typhi isolate BL 21801 harboring DNA gyrase A S83F mutation by disk diffusion method in presence of plasmid mediated quinolone-resistant gene qnrA and qnrS
[22] = system: Salmonella enterica subsp. enterica; assay: Antimicrobial activity against Salmonella enterica Serovar Typhi isolate AG3 harboring DNA gyrase A S83F mutation by disk diffusion method
[23] = system: Salmonella enterica subsp. enterica; assay: Antimicrobial activity against multidrug-resistant Salmonella enterica Serovar Typhi isolate AG168 harboring DNA gyrase A S83F mutation by disk diffusion method
[24] = system: Salmonella enterica subsp. enterica; assay: Antimicrobial activity against multidrug-resistant Salmonella enterica Serovar Typhi isolate AG15 harboring DNA gyrase A S83F mutation by disk diffusion method
[25] = system: Salmonella enterica subsp. enterica; assay: Antimicrobial activity against multidrug-resistant Salmonella enterica Serovar Typhi isolate DT3 harboring DNA gyrase A S83F mutation by disk diffusion method in presence of plasmid mediated quinolone-resistant gene qnrA and qnrS
[26] = system: Salmonella enterica subsp. enterica; assay: Antimicrobial activity against multidrug-resistant Salmonella enterica Serovar Typhi isolate DT54 harboring DNA gyrase A S83F mutation by disk diffusion method
[27] = system: Salmonella enterica subsp. enterica; assay: Antimicrobial activity against Salmonella enterica Serovar Typhi isolate ipt 2 harboring DNA gyrase A D87G mutation by disk diffusion method in presence of plasmid mediated quinolone-resistant gene qnrA and qnrS
[28] = system: Salmonella enterica subsp. enterica; assay: Antimicrobial activity against multidrug-resistant Salmonella enterica Serovar Typhi isolate nar 51 harboring DNA gyrase A S83F mutation by disk diffusion method
[29] = system: Salmonella enterica subsp. enterica; assay: Antimicrobial activity against Salmonella enterica Serovar Typhi isolate CT144 harboring DNA gyrase A D87G mutation by disk diffusion method in presence of plasmid mediated quinolone-resistant gene qnrA and qnrS
[30] = system: Salmonella enterica subsp. enterica; assay: Antimicrobial activity against multidrug-resistant Salmonella enterica Serovar Typhi isolate DT2 harboring DNA gyrase A S83F mutation by disk diffusion method in presence of plasmid mediated quinolone-resistant gene qnrA and qnrS
[31] = system: Salmonella enterica subsp. enterica; assay: Antimicrobial activity against multidrug-resistant Salmonella enterica Serovar Typhi isolate nar 45 harboring DNA gyrase A S83F mutation by disk diffusion method
[32] = system: Salmonella enterica subsp. enterica; assay: Antimicrobial activity against multidrug-resistant Salmonella enterica Serovar Typhi isolate DT40 harboring DNA gyrase A S83F mutation by disk diffusion method
[33] = system: Salmonella enterica subsp. enterica; assay: Antimicrobial activity against Salmonella enterica Serovar Typhi isolate AG259 harboring DNA gyrase A S83F mutation by disk diffusion method in presence of plasmid mediated quinolone-resistant gene qnrA and qnrS
[34] = system: Salmonella enterica subsp. enterica; assay: Antimicrobial activity against multidrug-resistant Salmonella enterica Serovar Typhi isolate AG6 harboring DNA gyrase A S83F mutation by disk diffusion method
[35] = system: Salmonella enterica subsp. enterica; assay: Antimicrobial activity against multidrug-resistant Salmonella enterica Serovar Typhi isolate HTD 798 harboring DNA gyrase A S83F mutation by disk diffusion method
[36] = system: Salmonella enterica subsp. enterica; assay: Antimicrobial activity against Salmonella enterica Serovar Typhi isolate AG169 harboring DNA gyrase A S83F mutation by disk diffusion method
[37] = system: Salmonella enterica subsp. enterica; assay: Antimicrobial activity against multidrug-resistant Salmonella enterica Serovar Typhi isolate BL 3769 harboring DNA gyrase A S83F mutation by disk diffusion method in presence of plasmid mediated quinolone-resistant gene qnrA and qnrS
[38] = system: Salmonella enterica subsp. enterica; assay: Antimicrobial activity against Salmonella enterica Serovar Typhi isolate AG258 harboring DNA gyrase A S83F mutation by disk diffusion method in presence of plasmid mediated quinolone-resistant gene qnrA and qnrS
[39] = system: Salmonella enterica subsp. enterica; assay: Antimicrobial activity against Salmonella enterica Serovar Typhi isolate nar 108 harboring DNA gyrase A S83F mutation by disk diffusion method in presence of plasmid mediated quinolone-resistant gene qnrA and qnrS

SMILES | MIC [1] | MIC [2] | MIC [3] | MIC [4] | MIC [5] | MIC [6] | MIC [7] | MIC [8] | MIC [9] | MIC [10] | MIC [11] | MIC [12] | MIC [13] | MIC [14] | MIC [15] | MIC [16] | MIC [17] | MIC [18] | MIC [19] | MIC [20] | other results
CCn1cc(C(=O)O)c(=O)c2ccc(C)nc21 [NALIDIXIC ACID] | > 256 µg/mL | 256 µg/mL (≈ 1100 µM) | > 256 µg/mL | > 256 µg/mL | > 256 µg/mL | > 256 µg/mL | 256 µg/mL | > 256 µg/mL | > 256 µg/mL | 256 µg/mL (≈ 1100 µM) | 128 µg/mL | > 256 µg/mL | 256 µg/mL | 256 µg/mL | > 256 µg/mL | > 256 µg/mL | 256 µg/mL | 256 µg/mL (≈ 1100 µM) | > 256 µg/mL | > 256 µg/mL | MIC [21]: > 256 µg/mL; MIC [22]: > 256 µg/mL; MIC [23]: > 256 µg/mL; MIC [24]: > 256 µg/mL; MIC [25]: > 256 µg/mL; MIC [26]: > 256 µg/mL; MIC [27]: 256 µg/mL; MIC [28]: 256 µg/mL (≈ 1100 µM); MIC [29]: > 256 µg/mL; MIC [30]: > 256 µg/mL; MIC [31]: 256 µg/mL (≈ 1100 µM); MIC [32]: > 256 µg/mL; MIC [33]: > 256 µg/mL; MIC [34]: > 256 µg/mL; MIC [35]: > 256 µg/mL; MIC [36]: > 256 µg/mL; MIC [37]: > 256 µg/mL; MIC [38]: > 256 µg/mL; MIC [39]: 256 µg/mL
CC1COc2c(N3CCN(C)CC3)c(F)cc3c(=O)c(C(=O)O)cn1c23 (stereo not drawn) [OFLOXACIN] | 0.5 µg/mL | 0.5 µg/mL (≈ 1.38 µM) | 1.5 µg/mL (≈ 4.15 µM) | 1 µg/mL (≈ 2.77 µM) | 0.5 µg/mL | 2 µg/mL (≈ 5.53 µM) | 1 µg/mL | 0.5 µg/mL | 1 µg/mL (≈ 2.77 µM) | 1 µg/mL (≈ 2.77 µM) | 1 µg/mL | 0.5 µg/mL | 1 µg/mL | 1 µg/mL | 1 µg/mL | 1 µg/mL (≈ 2.77 µM) | 1 µg/mL | 1 µg/mL (≈ 2.77 µM) | 1.5 µg/mL (≈ 4.15 µM) | 1.5 µg/mL (≈ 4.15 µM) | MIC [21]: 0.5 µg/mL; MIC [22]: 2 µg/mL (≈ 5.53 µM); MIC [23]: 1 µg/mL (≈ 2.77 µM); MIC [24]: 1.5 µg/mL (≈ 4.15 µM); MIC [25]: 2 µg/mL; MIC [26]: 1 µg/mL (≈ 2.77 µM); MIC [27]: 2 µg/mL; MIC [28]: 1 µg/mL (≈ 2.77 µM); MIC [29]: 1 µg/mL; MIC [30]: 2 µg/mL; MIC [31]: 0.5 µg/mL (≈ 1.38 µM); MIC [32]: 0.5 µg/mL (≈ 1.38 µM); MIC [33]: 1.5 µg/mL; MIC [34]: 1 µg/mL (≈ 2.77 µM); MIC [35]: 1 µg/mL (≈ 2.77 µM); MIC [36]: 1 µg/mL (≈ 2.77 µM); MIC [37]: 0.5 µg/mL; MIC [38]: 1.5 µg/mL; MIC [39]: 1 µg/mL
